Among the data in patent publication US8288379B2, “Thia-triaza-cyclopentazulenes” (Boehringer Ingelheim International GmbH, priority 2009, dated 2012) are IC50 and EC50 values, retold here.

The target in one experiment is T1, FRAP1 (mTOR) kinase (Homo sapiens, UniProt P42345).
T1 construct: purchased Invitrogen PV4753
Put plainly: Inhibition of mTOR-induced p-4E-BP1 phosphorylation (TR-FRET mTOR Activity Kit; Invitrogen). In kind it is biochemical. Conditions: 400 nM GFP-4E-BP1 substrate, ~150 ng/mL mTOR, one hour at room temperature. In short, it runs like this: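 LanthaScreen TR-FRET: mTOR with GFP-4E-BP1 substrate in HEPES pH 7.5 buffer with 10 mM MnCl2, compound preincubated 30 min at RT, then ATP added and reacted 1 h at 20-25 °C. Stopped with EDTA plus Tb-anti-p4E-BP1 (pThr46), 1 h; GFP/Tb emission ratio over a 16-point curve, sigmoidal fit for IC50.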

For the next experiment, the system named is PC-3 cells. Put plainly: Inhibition of proliferation: CyQuant PC-3. In kind it is cell-based. Conditions: 72 h; PC-3 human prostate carcinoma cells, incubated with compounds for 3 days, CyQuant NF DNA dye. In short, it runs like this:
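PC-3 proliferation read by CyQuant NF: DNA-binding dye with membrane permeabilization reagent added after medium removal, 30-60 min incubation, fluorescence at Ex 485/Em 530 nm. Proliferation judged from cell counts of drug-treated versus untreated controls.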

One may read the IC50 as the concentration needed to halve the response being measured. As usually defined, the EC50 is the concentration giving half of the maximal effect.

T1 sequence (P42345 1360-2549 limits assumed): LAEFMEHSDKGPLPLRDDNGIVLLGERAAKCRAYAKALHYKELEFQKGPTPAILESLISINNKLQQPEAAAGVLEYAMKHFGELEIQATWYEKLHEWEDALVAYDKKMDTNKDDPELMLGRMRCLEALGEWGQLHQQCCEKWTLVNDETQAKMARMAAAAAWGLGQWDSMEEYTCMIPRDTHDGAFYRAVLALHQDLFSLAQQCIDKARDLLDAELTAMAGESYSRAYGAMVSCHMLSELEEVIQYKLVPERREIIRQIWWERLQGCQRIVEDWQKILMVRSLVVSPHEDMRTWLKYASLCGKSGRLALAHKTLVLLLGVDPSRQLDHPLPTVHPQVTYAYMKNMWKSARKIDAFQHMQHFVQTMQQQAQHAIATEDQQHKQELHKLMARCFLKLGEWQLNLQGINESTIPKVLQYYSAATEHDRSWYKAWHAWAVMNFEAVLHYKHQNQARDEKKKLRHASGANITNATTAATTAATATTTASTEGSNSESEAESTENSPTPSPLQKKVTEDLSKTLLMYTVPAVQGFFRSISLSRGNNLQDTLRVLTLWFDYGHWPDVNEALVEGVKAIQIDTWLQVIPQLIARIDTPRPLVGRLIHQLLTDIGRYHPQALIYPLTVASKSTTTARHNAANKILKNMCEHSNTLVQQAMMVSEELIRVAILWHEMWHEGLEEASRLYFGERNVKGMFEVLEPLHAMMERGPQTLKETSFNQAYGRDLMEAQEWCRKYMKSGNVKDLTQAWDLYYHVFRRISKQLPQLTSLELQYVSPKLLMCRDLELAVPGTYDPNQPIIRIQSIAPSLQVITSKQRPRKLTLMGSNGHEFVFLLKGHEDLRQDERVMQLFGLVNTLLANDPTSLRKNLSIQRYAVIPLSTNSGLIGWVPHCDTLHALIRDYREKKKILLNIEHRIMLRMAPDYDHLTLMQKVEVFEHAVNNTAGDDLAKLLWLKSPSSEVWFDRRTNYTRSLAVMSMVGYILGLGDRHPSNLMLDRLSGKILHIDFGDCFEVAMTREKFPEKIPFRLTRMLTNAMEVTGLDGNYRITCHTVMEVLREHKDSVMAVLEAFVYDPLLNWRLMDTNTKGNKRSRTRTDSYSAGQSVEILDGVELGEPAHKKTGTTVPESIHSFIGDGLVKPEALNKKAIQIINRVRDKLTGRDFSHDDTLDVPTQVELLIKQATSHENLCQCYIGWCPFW

The compound `CCNc1ccc(-c2nn(-c3ccncc3C)c3c2CCCc2nc(NC(C)=O)sc2-3)cn1` [Example B-77, N-[3-(6-Ethylamino-pyridin-3-yl)-1-(3-methyl-pyridin-4-yl)-1,4,5,6-tetrahydro-9-thia-1,2,7-triaza-cyclopenta[e]azulen-8-yl]-acetamide] returned an IC50 on FRAP1 (mTOR) kinase of 34 nM. In addition, in the experiment on PC-3 cells, the EC50 is 126 nM.
`CNc1ccc(-c2nn(CC(C)C)c3c2CCCc2nc(NC(C)=O)sc2-3)cn1` [Example B-86, N-[1-isobutyl-3-(6-methylamino-pyridin-3-yl)-1,4,5,6-tetrahydro-9-thia-1,2,7-triaza-cyclopenta[e]azulen-8-yl]-acetamide] registered an IC50 against FRAP1 (mTOR) kinase of 32 nM. Also, the EC50 in the experiment with PC-3 cells stood at 47 nM.
For the compound `CCNc1ccc(-c2nn(-c3cccnc3)c3c2CCCc2nc(NC(C)=O)sc2-3)cn1` [Example B-127], the IC50 against FRAP1 (mTOR) kinase stood at 83 nM. Further, the half-maximal effective concentration (EC50) in the experiment on PC-3 cells stood at 137 nM.
Regarding `CNc1ccc(-c2nn(-c3ccccc3C)c3c2CCCc2nc(NC(=O)CCOC)sc2-3)cn1` [Example B-106, 3-Methoxy-N-[3-(6-methylamino-pyridin-3-yl)-1-o-tolyl-1,4,5,6-tetrahydro-9-thia-1,2,7-triaza-cyclopenta[e]azulen-8-yl]-propionamide], the midpoint of inhibition against FRAP1 (mTOR) kinase, the IC50, lay at 69 nM. The half-maximal effective concentration (EC50) in the experiment with PC-3 cells worked out at 178 nM.
On FRAP1 (mTOR) kinase, `CCNc1ccc(-c2nn(-c3ccccc3)c3c2CCCc2nc(NC(C)=O)sc2-3)cn1` [Example B-122, N-[3-(6-Ethylamino-pyridin-3-yl)-1-phenyl-1,4,5,6-tetrahydro-9-thia-1,2,7-triaza-cyclopenta[e]azulen-8-yl]-acetamide] had an IC50 of 32 nM. Moreover, the EC50 with PC-3 cells came out at 79 nM.
At FRAP1 (mTOR) kinase, `CC(=O)Nc1nc2c(s1)-c1c(c(-c3ccc(N)nc3)nn1-c1cccnc1C)CCC2` [Example B-138, N-[3-(6-Amino-pyridin-3-yl)-1-(2-methyl-pyridin-3-yl)-1,4,5,6-tetrahydro-9-thia-1,2,7-triaza-cyclopent[e]azulen-8-yl]acetamide] gave an IC50 of 38 nM. The EC50 in the experiment on PC-3 cells worked out at 236 nM.
For `CC(C)n1nc(-c2ccc(N)nc2)c2c1-c1sc(NC(=O)N(C)C)nc1CCC2` [Example B-29], in that order: 200 nM and 276 nM.
Take `CC(=O)Nc1nc2c(s1)-c1c(c(-c3c[nH]c(C)n3)nn1-c1ccccc1C)CCC2` [Example B-120, N-[3-(2-Methyl-1H-imidazol-4-yl)-1-o-tolyl-1,4,5,6-tetrahydro-9-thia-1,2,7-triaza-cyclopenta[e]azulen-8-yl]-acetamide]: at FRAP1 (mTOR) kinase, the IC50 amounted to 65 nM. Further, in the experiment with PC-3 cells, the EC50 stood at 250 nM.
Compound `CCNc1ccc(-c2nn(-c3ccccc3C)c3c2CCCc2nc(NC(C)=O)sc2-3)cn1` [Example B-07, N-[3-(6-Ethylamino-pyridin-3-yl)-1-o-tolyl-1,4,5,6-tetrahydro-9-thia-1,2,7-triaza-cyclopenta[e]azulen-8-yl]-acetamide] displayed an IC50 at FRAP1 (mTOR) kinase of 55 nM. In the experiment on PC-3 cells, the EC50 came out at 128 nM.
Compound `CCn1nc(-c2ccc(N)nc2)c2c1-c1sc(NC(=O)N(C)C)nc1CCC2` [Example B-35] yielded an IC50 against FRAP1 (mTOR) kinase of 219 nM. The EC50 with PC-3 cells was found to be 408 nM.
Turning to `CCNc1ccc(-c2nn(-c3ccccc3C)c3c2CCCc2nc(NC(=O)CNC)sc2-3)cn1` [Example B-69], half-maximal inhibition on FRAP1 (mTOR) kinase (IC50) was put at 145 nM. In addition, the EC50 in the experiment with PC-3 cells was 229 nM.
Compound `CC(=O)Nc1nc2c(s1)-c1c(c(-c3ccc(N)nc3)nn1-c1ccccc1Cl)CCC2` [Example B-64, N-[3-(6-Amino-pyridin-3-yl)-1-(2-chloro-phenyl)-1,4,5,6-tetrahydro-9-thia-1,2,7-triaza-cyclopenta[e]azulen-8-yl]-acetamide] gave an IC50 on FRAP1 (mTOR) kinase of 9 nM. The EC50 with PC-3 cells amounted to 82 nM.
As for `CNc1ccc(-c2nn(CCOC)c3c2CCCc2nc(NC(C)=O)sc2-3)cn1` [Example B-03, N-[1-(2-Methoxy-ethyl)-3-(6-methylamino-pyridin-3-yl)-1,4,5,6-tetrahydro-9-thia-1,2,7-triaza-cyclopenta[e]azulen-8-yl]-acetamide], 87 nM corresponded to half-maximal inhibition against FRAP1 (mTOR) kinase (IC50). For the same compound, the EC50 with PC-3 cells turned out to be 263 nM.
For the compound `CNc1ccc(-c2nn(C3CCN(C4CC4)CC3)c3c2CCCc2nc(NC(=O)N(C)C)sc2-3)cn1` [Example B-57], the half-inhibitory concentration (IC50) at FRAP1 (mTOR) kinase came to 70 nM. Moreover, the EC50 in the experiment with PC-3 cells was found to be 147 nM.
As to `CCn1nc(-c2ccc(N)nc2)c2c1-c1sc(NC(C)=O)nc1CCC2` [Example B-130, N-[3-(6-Amino-pyridin-3-yl)-1-ethyl-1,4,5,6-tetrahydro-9-thia-1,2,7-triaza-cyclopenta[e]azulen-8-yl]-acetamide], the IC50 against FRAP1 (mTOR) kinase came out at 19 nM. In addition, the EC50 in the experiment on PC-3 cells came to 178 nM.
The matching figures for `CC(=O)Nc1nc2c(s1)-c1c(c(-c3ccc(N)nc3)nn1-c1ccccc1Br)CCC2` [Example B-63, N-[3-(6-Amino-pyridin-3-yl)-1-(2-bromo-phenyl)-1,4,5,6-tetrahydro-9-thia-1,2,7-triaza-cyclopenta[e]azulen-8-yl]-acetamide]: 27 nM and 143 nM.
Turning to `CNc1ccc(-c2nn(-c3cccnc3C)c3c2CCCc2nc(NC(C)=O)sc2-3)cn1` [Example B-139, N-[3-(6-Methylamino-pyridin-3-yl)-1-(2-methyl-pyridin-3-yl)-1,4,5,6-tetrahydro-9-thia-1,2,7-triaza-cyclopent[e]azulen-8-yl]acetamide], the IC50 against FRAP1 (mTOR) kinase worked out at 21 nM. Further, the 50% effective concentration (EC50) with PC-3 cells stood at 71 nM.
In turn, `COCCn1nc(-c2ccc(N)nc2)c2c1-c1sc(NC(=O)N(C)C)nc1CCC2` [Example B-51] showed a half-maximal inhibitory concentration (IC50) against FRAP1 (mTOR) kinase of 187 nM. For the same compound, in the experiment with PC-3 cells, the EC50 came out at 523 nM.
For `C=CCn1nc(-c2ccc(NCC)nc2)c2c1-c1sc(NC(C)=O)nc1CCC2` [Example B-129], half-maximal inhibition at FRAP1 (mTOR) kinase (IC50) required 93 nM. Besides, the EC50 with PC-3 cells worked out at 265 nM.
Take `CCNc1ccc(-c2nn(-c3ccccc3CC)c3c2CCCc2nc(NC(C)=O)sc2-3)cn1` [Example B-79]: at FRAP1 (mTOR) kinase, half-maximal inhibition (IC50) required 65 nM. The EC50 with PC-3 cells was 62 nM.
On to `CNC(=O)Nc1nc2c(s1)-c1c(c(-c3ccc(NC)nc3)nn1-c1cccnc1C)CCC2` [Example B-143, 1-Methyl-3-[3-(6-methylamino-pyridin-3-yl)-1-(2-methyl-pyridin-3-yl)-1,4,5,6-tetrahydro-9-thia-1,2,7-triaza-cyclopent[e]azulen-8-yl]-urea], for which the IC50 on FRAP1 (mTOR) kinase is 71 nM. Also, the EC50 in the experiment on PC-3 cells was found to be 424 nM.
In turn, `CC(=O)Nc1nc2c(s1)-c1c(c(-c3ccc(N)nc3)nn1-c1ccccc1F)CCC2` [Example B-62, N-[3-(6-Amino-pyridin-3-yl)-1-(2-fluoro-phenyl)-1,4,5,6-tetrahydro-9-thia-1,2,7-triaza-cyclopenta[e]azulen-8-yl]-acetamide] registered an IC50 at FRAP1 (mTOR) kinase of 10 nM. The EC50 with PC-3 cells was 47 nM.
With `COc1ccccc1-n1nc(-c2c[nH]cn2)c2c1-c1sc(NC(C)=O)nc1CCC2` [Example B-117], on FRAP1 (mTOR) kinase, it took 35 nM to reach half-maximal inhibition (IC50). Moreover, the EC50 in the experiment with PC-3 cells was found to be 306 nM.
In the case of `CN(C)CC(=O)Nc1nc2c(s1)-c1c(c(-c3ccc(N)nc3)nn1-c1ccccc1F)CCC2` [Example E-17, N-[3-(6-Amino-pyridin-3-yl)-1-(2-fluoro-phenyl)-1,4,5,6-tetrahydro-9-thia-1,2,7-triaza-cyclopenta[e]azulen-8-yl]-2-dimethylamino-acetamide], the half-maximal inhibitory concentration (IC50) at FRAP1 (mTOR) kinase was found to be 65 nM. In the experiment with PC-3 cells, the EC50 was 171 nM.
The matching figures for `CCc1ccccc1-n1nc(-c2c[nH]cn2)c2c1-c1sc(NC(C)=O)nc1CCC2` [Example B-118, N-[1-(2-Ethyl-phenyl)-3-(1H-imidazol-4-yl)-1,4,5,6-tetrahydro-9-thia-1,2,7-triaza-cyclopenta[e]azulen-8-yl]-acetamide]: 17 nM and 55 nM.
`CC(=O)Nc1nc2c(s1)-c1c(c(-c3c[nH]cn3)nn1-c1ccccc1Cl)CCC2` [Example B-116]: 29 nM corresponded to half-maximal inhibition at FRAP1 (mTOR) kinase (IC50). Besides, the EC50 with PC-3 cells was found to be 148 nM.
The matching figures for `CN(C)C(=O)Nc1nc2c(s1)-c1c(c(-c3ccc(N)nc3)nn1-c1ccccc1Cl)CCC2` [Example B-54]: 570 nM and 390 nM.
At FRAP1 (mTOR) kinase, `CNC(=O)Nc1nc2c(s1)-c1c(c(-c3ccc(N)nc3)nn1-c1ccccc1C)CCC2` [Example B-148, 1-[3-(6-Amino-pyridin-3-yl)-1-o-tolyl-1,4,5,6-tetrahydro-9-thia-1,2,7-triaza-cyclopenta[e]azulen-8-yl]-3-methyl-urea] registered an IC50 of 15 nM. Further, the EC50 in the experiment on PC-3 cells came out at 104 nM.
In the case of `CCNc1ccc(-c2nn(-c3cccc(OC)c3)c3c2CCCc2nc(NC(C)=O)sc2-3)cn1` [Example B-128], the 50% inhibitory concentration (IC50) on FRAP1 (mTOR) kinase came to 108 nM. Besides, the EC50 in the experiment with PC-3 cells stood at 119 nM.
For the compound `CCNc1ccc(-c2nn(CCOC)c3c2CCCc2nc(NC(C)=O)sc2-3)cn1` [Example B-125], at FRAP1 (mTOR) kinase, half-maximal inhibition (IC50) was put at 114 nM. Besides, the EC50 in the experiment on PC-3 cells amounted to 253 nM.
In turn, `COCCC(=O)Nc1nc2c(s1)-c1c(c(-c3ccc(N)nc3)nn1C(C)C)CCC2` [Example B-133, N-[3-(6-Amino-pyridin-3-yl)-1-isopropyl-1,4,5,6-tetrahydro-9-thia-1,2,7-triaza-cyclopenta[e]azulen-8-yl]-3-methoxy-propionamide] showed an IC50 at FRAP1 (mTOR) kinase of 65 nM. Moreover, the EC50 in the experiment with PC-3 cells amounted to 152 nM.
For `CNc1ccc(-c2nn(-c3ccccc3F)c3c2CCCc2nc(NC(C)=O)sc2-3)cn1` [Example B-81, N-[1-(2-Fluoro-phenyl)-3-(6-methylamino-pyridin-3-yl)-1,4,5,6-tetrahydro-9-thia-1,2,7-triaza-cyclopenta[e]azulen-8-yl]-acetamide], in that order: 41 nM and 23 nM.
